For data set [1] the following is noted: human, in vivo. The text has this:
The Example summarizes the management of concentrations of the immunosuppressants, tacrolimus (TAC) and cyclosporine (CSA) during the treatment.

A short description of data set [2]: Immunosuppressant blood concentrations in liver transplant recipients co-dosed with 3D. The format is in vivo, human. How it is done: Patients (n=34) on stable TAC or CSA therapy, at least 12 months post-LT, fibrosis stage <F2, received 3D +RBV for 24 weeks. When co-dosed with 3D, it was recommended that the prestudy total CSA daily dose be reduced to one-fifth and given QD. For TAC, a dose of 0.5 mg/7 days or 0.2 mg/3 days was recommended. Subsequent dose and dosing frequency modifications in TAC were made based on the individual TAC levels. Observed CSA trough concentrations (Ctrough) were summarized for CSA recipients (n=5) while TAC data (n=29) were interrogated further to profile on-study TAC Ctroughs. A nonlinear mixed effects model was used to characterize TAC concentration-time profiles using NONMEM software. A one compartment pharmacokinetic (PK) model with first order oral absorption and between subject variability on apparent clearance was used to describe the TAC data. The model estimated TAC PK parameters were used to predict TAC concentration-time profiles in order to evaluate TAC dosing strategies when co-dosed with 3D.

Setting [3] is: co-dosed with 3D, TAC dose 0.2-1 mg, CSA dose 25-75 mg, liver transplant recipients.

With `C=CC[C@@H]1/C=C(\C)C[C@H](C)C[C@H](OC)[C@H]2O[C@@](O)(C(=O)C(=O)N3CCCC[C@H]3C(=O)O[C@H](/C(C)=C/[C@@H]3CC[C@@H](O)[C@H](OC)C3)[C@H](C)[C@@H](O)CC1=O)[C@H](C)C[C@@H]2OC` [TAC, tacrolimus], the “Increase in concentration 24 hours after co-dosing with 3D” value in data set [1] was determined as 17 fold. Further, in data set [2] (LT recipients with GT1 HCV infection receiving 3D), the “Concentrations with recommended dose modifications” value is recorded as “within the therapeutic range”. In addition, in data set [2] (setting [3]), the “Blood concentration, interquartile range (IQR)” value lay within 3.3 to 6.6 ng/mL and the “Blood concentration, median” value was 4.6 ng/mL.

The values are drawn from US20150174194A1, “METHODS FOR TREATING LIVER TRANSPLANT RECIPIENTS” (AbbVie Inc., priority 2013, published 2015).
